Laboratory results published in paper PMC9929129, “Towards Translation of PqsR Inverse Agonists: From In Vitro Efficacy Optimization to In Vivo Proof‐of‐Principle” (Advanced Science, 2023).
“Also recorded” adds a separate entry of the source.

System: P. aeruginosa PAO1
Assay: Biofilm-eradication assay with amikacin
Format: cell-based, Pseudomonas aeruginosa
Settings: 10 × 10^−6 M 24 plus 4 µg/mL amikacin
Procedure: compound, 150 µL 1% DMSO in LB. The inoculator was wrapped with parafilm again and incubated for another 24 h. After that, the peg lid was transferred for 1 min to a 96-well plate containing 200 µL sterile MΩ in each well, followed by another 96 well plate containing 200 µL LB in each well. The system was sealed with parafilm and sonicated for 15 min in an ultrasonic bath with tray.
Immediately after sonication, 20 µL were removed from each well using a multi-channel pipette and diluted 1:10 (stepwise, until 10-6). After each dilution step, 10 µL were directly transferred to cetrimide agar plates (spot plating) using fresh pipette tips. Agar plates were incubated for 16 h at 37 °C and then used for cell counting. Statistical analysis was performed with GraphPad Prism 8.4.1 (GraphPad Software, San Diego, CA) using one-way ANOVA with Tukey’s multiple comparisons test.
Statistical outliers were determined using the Nalimov test, applying a 95% cut-off.
1.2.5 Biofilm-eradication assay
The assay was carried out as described in section 1.2.4, with the following modifications: In the first incubation step only QSI or DMSO (DMSO control and tobramycin control) were added to the wells at time 0. The well plate used for the second incubation step contained QSI/DMSO as before, in presence/absence of tobramycin/amikacin. […]

CC(C)Oc1ccc(-c2ncc(CNc3ccnc(C(F)(F)F)c3)cn2)cc1Cl [Compound 24]
Effect on amikacin activity against PAO1 biofilm: significant boost in activity; also recorded: boosted
